Test results: the METLIN SMRT retention time set (Domingo-Almenara et al. 2019)

Test: gradient 5% acetonitrile 3 min, to 50% in 2 min, to 85% in 15 min, held 3 min, 100 µL/min
Conditions: column: Zorbax Extend-C18 2.1 x 50 mm; eluents: water / acetonitrile, 0.1% formic acid
How it was run: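 Pure standards were run in mixtures of ~100 molecules by HPLC coupled to a quadrupole time-of-flight mass spectrometer. The column was a Zorbax Extend-C18 (2.1 × 50 mm, 1.8 μm) at 100 μL/min, with water and acetonitrile each containing 0.1% formic acid, in positive and negative ionization mode. Dead and dwell volumes were 40 μL and 900 μL. Retention time was taken from computationally picked adduct peaks, each manually inspected, with data collected over 3 months.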

Structure (SMILES)	RP-LC retention time
O=C(c1ccc(S(=O)(=O)c2ccc(Br)cc2)nc1)N1CCN(c2ncccn2)CC1	835 s
CCCNC(=O)C1CC(=O)N(CCc2c[nH]c3ccc(Cl)cc23)C1 (stereo not given)	708 s
CCOc1ccccc1-c1nc(-c2cn(Cc3cccc(F)c3)nn2)no1	1010 s
COC(=O)C1=CN(c2cccc(Br)c2)c2ccc(F)cc2S1(=O)=O	913 s
O=C(Cn1nc(N2CCOCC2)c2ccccc2c1=O)Nc1cccc(Br)c1	844 s
COC1CCOC2(CCN(C(=O)c3ccoc3)CC2)C1 (stereo not given)	652 s
Cc1ccsc1C(=O)NCC1Cn2cccc2C(=O)N1CC(C)C (stereo not given)	783 s
Cc1cc(C(=O)N2CCOCC2)nn1CC(=O)NCc1ccc2c(c1)OCO2	634 s
Cc1ccc(C2CC(=O)c3cnc(N4CCN(c5ccccc5)CC4)nc3C2)cc1 (stereo not given)	1340 s
Cc1cc(C)n(-c2ccnc(N3CCC(C(=O)N4CCN(c5ccccc5)CC4)CC3)n2)n1	907 s
CCCn1nnc2cc(-c3noc(CN4C(=O)COc5ccccc54)n3)ccc21	926 s
NS(=O)(=O)c1ccc(NC(=O)CSc2nnc3ccc4ccccc4n23)cc1	652 s
Cc1oc(-c2ccccc2)nc1Cn1nnc(C(=O)Nc2cc(F)ccc2F)c1C	1220 s
CC(C)NC(=O)N1CCCC1c1noc(CCC(=O)NC2CC2)n1 (stereo not given)	603 s
Cc1noc(-c2ccnc(-n3cnc(C(=O)NCC(C)C)c3)c2)n1	773 s
O=c1ccc(-c2nc(-c3ccc(F)cc3)no2)nn1Cc1cc(F)cc(F)c1	1110 s
COc1ccc(C2CCCN2C(=O)c2cc(-c3ccco3)on2)cc1 (stereo not given)	961 s
Cc1cnn(CC(=O)N2CCc3nn(CC4CC4)c(=O)n3CC2)c1	617 s
CCn1ccc(C(=O)Nc2cccc(OCc3nnc(-c4ccccc4)o3)c2)n1	891 s
Cc1ccccc1Nc1c(-c2cc(Br)ccc2F)nc2ccccn12	808 s
CCS(=O)(=O)c1nc2ccc(NS(=O)(=O)c3cccc(F)c3)cc2s1	851 s
Brc1c(Br)c(Br)c2n[nH]nc2c1Br	1010 s
O=C(NC1CCCCC1)C1CCCN(S(=O)(=O)c2c[nH]c(C(=O)N3CCCCCC3)c2)C1 (stereo not given)	866 s

Structure (SMILES)	RP-LC retention time
Cc1c(C(=O)NCC(C)C)cnn1-c1cc(-c2nc(C3CC3)no2)ccn1	969 s
O=C(Cn1c(=O)sc2ccccc21)Nc1nc(-c2ccc(Br)cc2)cs1	1070 s
COC(=O)c1ccc2c(=O)n(-c3cc(OC)cc(OC)c3)c(N3CCOCC3)nc2c1	903 s
Cc1nn(C(C)C(=O)NCCCN(C)c2ccccc2)c(=O)c2c(C)n(-c3ccccc3)nc12 (stereo not given)	655 s
COc1ccc2[nH]c(=O)c(CCC(=O)NC3CCN(Cc4ccccc4)CC3)cc2c1	596 s
O=C(NCc1csc(C2CCN(C(=O)Cc3ccccc3Cl)CC2)n1)C1CCC1	753 s
COc1ccc(CC(=O)N2C[C@@H]3C[C@H]2C[C@@H]3NC(=O)c2ccccc2)c(Cl)c1	738 s
Cc1nncn1C1CN(C(=O)c2ccc(OC(F)(F)F)cc2)C1	654 s
COCCN1C(=O)c2ccccc2C(C(=O)Nc2cc(C)ccn2)C12CCCCC2 (stereo not given)	745 s
Cc1ccc2c(Nc3ccc(F)c(C#N)c3)c(C(=O)N3CCC(C)CC3)cnc2n1	603 s
Cc1nn(-c2ccccc2)c(C)c1S(=O)(=O)N1CCC(C(=O)Nc2ccc(Cl)cc2)CC1	726 s
COc1ccc(-c2nc3ccccn3c2NC(=O)c2ccc([N+](=O)[O-])cc2)cc1	662 s
COc1ccc(-c2c(C(=O)Nc3ccc4c(c3)OCCO4)nc3ccccn23)cc1	919 s
CCS(=O)(=O)Nc1ccc(OCc2nnc(-c3ccccc3)o2)cc1	804 s
COCCN1C(=O)Cc2ccccc2C1C(=O)NCc1ccc(C(C)C)cc1 (stereo not given)	861 s
COc1ccc(CC(=O)NCCc2ccc(N(C)C)cc2)cc1	571 s
CCCn1c(=O)c(N2CCC(NC(=O)Nc3cccc(C)c3)CC2)nc2ccccc21	1030 s
CSCC(CO)NC(=O)/C=C/c1c(C)[nH]c(=O)[nH]c1=O (stereo not given)	564 s
COCCCNC(=O)Cn1ncc2c(C)n(Cc3ccc(Cl)cc3)c(C)c2c1=O	775 s
O=C(CN1C(=O)C2CCCCN2c2ccc(C(=O)N3CCCC3)cc21)NCc1ccc(F)cc1Cl (stereo not given)	863 s
COc1ccc(-c2nc(Cn3ccn4nc(-c5ccccc5OC)cc4c3=O)c(C)o2)cc1	1100 s
O=C(NCCn1nnc2cc(C(=O)N3CCCC3)ccc21)Nc1ccc(Br)cc1F	742 s
CC(C)Cn1c(=O)c2ccccc2n(Cc2nc(-c3cccc(Br)c3)no2)c1=O	1290 s

Structure (SMILES)	RP-LC retention time
O=C(NCc1nc(-c2ccc(Cl)cc2)no1)NC1CCCCC1	916 s
Cc1ccc(-c2cn3cccnc3n2)cc1NC(=O)c1ccccc1Br	682 s
COc1ccc(-c2nnc(-c3ccccc3)o2)cc1S(N)(=O)=O	716 s
COc1ccc(-n2nc3c(c2N)CSC3)cc1	629 s
COc1ccc(N(Cc2nnc3n2CCCCC3)C(=O)Nc2cccc(OC)c2)cc1	714 s
Cc1nc(Nc2ccc(F)cn2)sc1C(=O)N1CCC2(CC1)OCCO2	686 s
CCN1CCN(c2cc(C)c3cc(NC(=S)N4CCC(N5CCCCC5)CC4)ccc3n2)CC1	488 s
Cc1nnc2ccc(S(=O)(=O)N(Cc3ccccc3)c3cc(F)cc(F)c3)cn12	899 s
O=C(NCC1CCCO1)c1ccccc1NC(=O)C1CCN(C(=O)c2ccc(F)cc2)CC1 (stereo not given)	762 s
Cc1cc2c(c(=O)n(-c3ccccc3)c(=O)n2CC(=O)Nc2cccc(C#N)c2)n1C	784 s
CCOC(=O)c1sc2nc(C)cc(C)c2c1N(C(C)=O)C(C)=O	860 s
Cc1ccc(N2CCC(NC(=O)C3CCC3)C2=O)cc1C (stereo not given)	762 s
O=C(NC1CCCCC1)C1CCCN(S(=O)(=O)c2c[nH]c(C(=O)N3CCCC3)c2)C1 (stereo not given)	759 s
C=CCn1c2ccccc2c2nnc(SCC(=O)Nc3nc(-c4ccccc4)cs3)nc21	1050 s
O=C(Nc1cnc(N2CCN(CCOc3ccc(Cl)cc3)CC2)c(C(=O)O)c1)c1ccc(F)cc1	694 s
CCCOC(=O)C1=CN(Cc2ccccc2)S(=O)(=O)N=C1C	1020 s
Cc1noc(C)c1-c1ccc(S(=O)(=O)Nc2cccc(Br)c2)cc1	1000 s
CCCN1C(=O)Cc2cc(C(=O)NC3CC3)ccc21	652 s
O=C(Cc1ccc(Br)cc1)N1CCN(c2cc(-c3ccccc3)[nH]n2)CC1	873 s
CC(C)Oc1ccc(-c2noc(-c3nn(-c4ccc(Cl)cc4)ccc3=O)n2)cc1	1060 s
CCCn1cc(C(=O)NCc2ccccn2)c2cccnc21	595 s
COc1nccnc1N1CCC(N(C)C(=O)Cc2c(C)noc2C)C1 (stereo not given)	642 s
CCCn1c(=O)sc2cc(S(=O)(=O)N3CCN(C(=O)C4CCN(C(C)=O)CC4)CC3)ccc21	722 s

Structure (SMILES)	RP-LC retention time
CCC(C)NC(=O)c1ccc(-c2nnc3ccc(NC(=O)C4CC4)cn23)cc1 (stereo not given)	718 s
Cc1oncc1CN1CCN(C(=O)c2c(F)cccc2Cl)CC1	575 s
COC(=O)c1c(NC(C)c2cccc(OC)c2)c2cccc(Cl)c2[nH]c1=O (stereo not given)	843 s
NC(=O)CNC(=O)c1cc2c(s1)N(CC1CC1)CCCC2	692 s
CC(=O)N1CCN(c2nc(C)cc(N3CCCCC3)n2)CC1	598 s
Cc1ccn2cc(C(=O)NCCN(C)C3CCCCC3)nc2c1	572 s
COC(=O)Nc1nc(CC(=O)NCc2ccco2)cs1	606 s
COc1c(C)cnc(Cn2cnc3c(Cl)nc(N)nc32)c1C	638 s
O=C(C1CCN(c2cc(N3CCCCC3)ncn2)CC1)N1CCSCC1	628 s
COc1ccc(CC(=O)N2CCN(c3nc4ccncc4n(C)c3=O)CC2)c(Cl)c1	645 s
CCCNC(=O)N(CC(=O)N1CCc2sccc2C1COc1ccc(C)cc1)CC1CCCO1 (stereo not given)	1000 s
CC(C)N1C(=O)C(C)(C(=O)Nc2ccc(F)cc2F)Oc2cccnc21 (stereo not given)	989 s
Cc1ccc(Sc2nccnc2N2CCCC(C(=O)NCc3ccc(C)o3)C2)cc1 (stereo not given)	1080 s
O=C(Nc1ccc(OCC(=O)N2CCN(c3ccccc3F)CC2)nc1)C1CC1	648 s
CCOC(=O)c1cccc(Nc2ncccc2S(=O)(=O)NC)c1	622 s
CC(NC(=O)c1ccncc1)C(=O)Nc1nc2ccccc2[nH]1 (stereo not given)	566 s
COc1ccc(-n2nnc(C(=O)O)c2-c2ccccc2)cc1OC	691 s
COc1cccc(OC)c1C(=O)Nc1nc2c(s1)CCc1ccccc1-2	1000 s
O=C(NCc1ccc2c(c1)OCO2)C1CC(=O)N(c2ccc3c(c2)CCN3C(=O)C2CC2)C1 (stereo not given)	714 s
CNC(=O)c1cnn(-c2cccc(C)c2)c1-n1cccc1	804 s
COCCNc1c(-c2cccc(F)c2)nc2sc(C(=O)NC(C)C)c(C)n12	835 s
